SMILES strings stand for the structures.

The test system of one test is Escherichia coli 205. The test can be described thus: chemotherapeutic efficacy in vivo against systemic infection in mice (method of Zak et al.). Particulars: systemic infection in female SPF, MF2 mice. From the text:
(§1) B. Die chemotherapeutische Wirksamkeit in vivo gegen systemische Infektionen in weiblichen SPF, MF2 Mäusen wurde nach der Methode von Zak, 0. et al., 1979, Drugs Exptl. Clin. Res. 5, 45-59, ermittelt. Die gefundenen EDS50-Werte in Milligramm Substanz pro Kilogramm Maus (mg/kg) für eine Anzahl von Mikroorganismen werden für die oral (p.o.) oder subcutan (s.c.) applizierten, Testverbindungen in der Tabelle 2 angegeben.

The test system of test [1] is Staphylococcus aureus 10 B. The description is as above. Particulars: systemic infection in female SPF, MF2 mice; for ED50 Staphylococcus aureus 10 B: s.c.; for ED50: Staphylococcus aureus, 10B.
Source text: as §1

[2] abbreviates: Escherichia coli, 205, po, p.o.
Where [3] appears, read: Escherichia coli, 205, sc, s.c.

Take `CN(C)CCn1nnnc1SCC1=C(C(=O)O)N2C(=O)[C@@H](NC(=O)C(NS(=O)(=O)CCN)c3csc(N)n3)[C@H]2SC1` (stereo partly drawn) [Beispiel 20, 3-[1-(2-Dimethylaminoäthyl)-1H-tetrazol-5-ylthiomethyl]-7ß-[(2R,S)-2-(2-aminoäthansulfonylamino)-2-(2-aminothiazol-4-yl)-acetamido]-3-cephem-4-carbonsäure]: the figures for the “ED50 Escherichia coli 205” value in the test on Escherichia coli 205 (p.o.) and with Escherichia coli 205 (s.c.) were 8 mg/kg and 0,8 mg/kg, respectively. Moreover, in test [1], the “ED50 Staphylococcus aureus 10 B” value is recorded as greater than 30 mg/kg.
Consider `NCCS(=O)(=O)NC(C(=O)N[C@@H]1C(=O)N2C(C(=O)[O-])=C(CSc3nnnn3CC(=O)O)CS[C@H]12)c1csc(N)n1.[Na+]` (stereo partly drawn) [Testverbindung 5, 3-(1-Carboxymethyl-1H-tetrazol-5-ylthiomethyl)-7ß-[(2R,S)-2-(2-aminoäthansulfonylamino)-2-(2-aminothiazol-4-yl)-acetamido]-3-cephem-4-carbonsäure-natriumsalz], for which the “ED50 Escherichia coli 205” value in the test with Escherichia coli 205 (p.o.) is 2 mg/kg; in the test on Escherichia coli 205 (s.c.), 0,45 mg/kg. Besides, in test [1], the “ED50 Staphylococcus aureus 10 B” value amounted to 78 mg/kg.
In the case of `NCCS(=O)(=O)NC(C(=O)N[C@@H]1C(=O)N2C(C(=O)[O-])=C(CSc3nnnn3CS(=O)(=O)O)CS[C@H]12)c1csc(N)n1.[Na+]` (stereo partly drawn) [Testverbindung 6, 3-(1-Sulfomethyl-1H-tetrazol-5-ylthiomethyl)-7ß-[(2R,S)-2-(2-aminoäthansulfonylamino)-2-(2-aminothiazol-4-yl)-acetamido]-3-cephem-4-carbonsäurematriumsalz], the “ED50 Escherichia coli 205” value is reported as 10 mg/kg in the test on Escherichia coli 205 (p.o.) and 6,0 mg/kg with Escherichia coli 205 (s.c.). Besides, in test [1], the “ED50 Staphylococcus aureus 10 B” value was greater than 30 mg/kg.
As to `CS(=O)(=O)NC(C(=O)N[C@@H]1C(=O)N2C(C(=O)[O-])=C(C[n+]3ccc(C(N)=O)cc3)CS[C@H]12)c1csc(N)n1` (stereo partly drawn) [Testverbindung 9, 3-(4-Carbamoylpyridiniomethyl)-7ß-[(2R,S)-2-(2-aminothiazol-4-yl)-2-methansulfonylaminoacetamido]-3-cephem-4-carbonsäure], the “ED50 Escherichia coli 205” value in the test with Escherichia coli 205 (s.c.) came out at 25 mg/kg. Besides, the “ED50 Staphylococcus aureus 10 B” value in test [1] is listed as 55 mg/kg.
With `CC(=O)OCC1=C(C(=O)O)N2C(=O)[C@@H](NC(=O)C(NS(=O)(=O)CCNC=O)c3csc(N)n3)[C@H]2SC1` (stereo partly drawn) [Testverbindung 39], the ED50 was found to be 5.5 mg/kg in the test with Escherichia coli 205 (setting [2]), 0.8 mg/kg in the test on Escherichia coli 205 (setting [3]) and 10 mg/kg in test [1] (sc).
Turning to `CS(=O)(=O)N[C@H](C(=O)N[C@@H]1C(=O)N2C(C(=O)O)=C(COC(N)=O)CS[C@H]12)c1csc(N)n1` [Testverbindung 40], the ED50 in the test with Escherichia coli 205 (setting [2]) stood at 0.9 mg/kg; in the test on Escherichia coli 205 (setting [3]) it was 0.1 mg/kg; in test [1] (sc) it was 3 mg/kg.
The like results for `C=CC(=O)NCCS(=O)(=O)NC(C(=O)N[C@@H]1C(=O)N2C(C(=O)O)=C(CSc3nnnn3C)CS[C@H]12)c1csc(N)n1` (stereo partly drawn) [Testverbindung 41] were, in that order, 10 mg/kg, 2 mg/kg and 24 mg/kg.
For the compound `C=CC(=O)NCCS(=O)(=O)N[C@H](C(=O)N[C@@H]1C(=O)N2C(C(=O)O)=C(COC(N)=O)CS[C@H]12)c1csc(N)n1` [Testverbindung 42], the ED50 in the test with Escherichia coli 205 (setting [2]) was 2.5 mg/kg; with Escherichia coli 205 (setting [3]) it was 0.1 mg/kg; in test [1] (sc), 15 mg/kg.
As for `CC(=O)NCCS(=O)(=O)NC(C(=O)N[C@@H]1C(=O)N2C(C(=O)O)=C(CSc3nnnn3C)CS[C@H]12)c1csc(N)n1` (stereo partly drawn) [Testverbindung 43], the ED50 in the test with Escherichia coli 205 (setting [2]) stood at 8 mg/kg; in the test on Escherichia coli 205 (setting [3]), 1 mg/kg; in test [1] (sc) it was 50 mg/kg.
As to `CS(=O)(=O)NC(C(=O)N[C@@H]1C(=O)N2C(C(=O)O)=C(CSc3nnnn3CS(=O)(=O)O)CS[C@H]12)c1csc(N)n1` (stereo partly drawn) [Testverbindung 44], the ED50 is less than 1 mg/kg in the test with Escherichia coli 205 (setting [3]) and 85 mg/kg in test [1] (sc).
`CS(=O)(=O)NCCS(=O)(=O)NC(C(=O)N[C@@H]1C(=O)N2C(C(=O)O)=C(COC(N)=O)CS[C@H]12)c1csc(N)n1` (stereo partly drawn) [Testverbindung 45]: the ED50 in test [1] (po) turned out to be 90 mg/kg; in test [1] (sc), 55 mg/kg.
On to `NC(=O)OCC1=C(C(=O)O)N2C(=O)C(NC(=O)C(NS(=O)(=O)CCNS(=O)(=O)c3ccc(N)cc3)c3csc(N)n3)C2SC1` (stereo not drawn) [Testverbindung 46], for which the ED50 with Escherichia coli 205 (setting [3]) is less than 1 mg/kg; in test [1] (sc), 9 mg/kg.
As to `CC(=O)OCC1=C(C(=O)O)N2C(=O)[C@@H](NC(=O)C(NS(=O)(=O)CCNS(=O)(=O)c3ccc(N)cc3)c3csc(N)n3)[C@H]2SC1` (stereo partly drawn) [Testverbindung 47], the ED50 in the test with Escherichia coli 205 (setting [2]) is greater than 30 mg/kg; with Escherichia coli 205 (setting [3]), 2.8 mg/kg; in test [1] (po) it was 100 mg/kg; in test [1] (sc), 5 mg/kg.

The values above are taken from EP0092830A2, “Cephalosporin derivatives, process for their preparation, pharmaceutical compositions containing them and their application” (CIBA-GEIGY AG, priority 1982, dated 1983).
